From patent US9850216B2 (H. LEE MOFFITT CANCER CENTER AND RESEARCH INSTITUTE, INC., priority 2013, dated 2017) come the findings set out here.

Values joined by “and” are separate entries in the source; they are usually repeats but may differ in a detail not shown here. Equal entries are not always repeated. Structures can show the parent of a compound that is named as a salt. Where two headings read alike, the source gives them in different places.

Data set [1] has as its target T1, ACK1 (Homo sapiens, UniProt Q07912). The experiment in a line: 32P Hotspot assay (Reaction Biology), ACK1 IC50. Format: biochemical. As to the method:
8 compounds were tested against […], ACK1, Src and ALK in various combinations. […] Reactions were carried out at 10 μM ATP.

In data set [2] the target is T1, ACK1. The experiment in a line: ACK1 ELISA: phosphorylation of AKT-derived peptide. Format: biochemical. For orientation: ELISA stands for enzyme-linked immunosorbent assay.
[3] abbreviates: Table 2, read-out: IC50 (32P Hotspot assay).
[4] abbreviates: 10 μM, Table 2, library 9, read-out: % Inhibition @ 10 μM (ELISA).
Where [5] appears, read: 32P hotspot / enzymatic assay, read-out: ACK1 IC50.
[6] abbreviates: 10 μM, Table 1, replicate values listed.
[7] abbreviates: 10 μM, Table 1, replicate values listed, read-out: % Inhibition at 10 μM (ELISA).
Setting [8] is: Table 3, 10-dose, 3-fold dilution from 10 μM, 10 μM ATP, read-out: Compound IC50* (M): ACK1.
Setting [9] is: Table 1, unit inferred, (RB) = Reaction Biology, replicates listed, read-out: IC50.
Where [10] appears, read: 10 μM, Table 1, replicate values listed, hydrochloride.

T1 sequence (Q07912 whole entry): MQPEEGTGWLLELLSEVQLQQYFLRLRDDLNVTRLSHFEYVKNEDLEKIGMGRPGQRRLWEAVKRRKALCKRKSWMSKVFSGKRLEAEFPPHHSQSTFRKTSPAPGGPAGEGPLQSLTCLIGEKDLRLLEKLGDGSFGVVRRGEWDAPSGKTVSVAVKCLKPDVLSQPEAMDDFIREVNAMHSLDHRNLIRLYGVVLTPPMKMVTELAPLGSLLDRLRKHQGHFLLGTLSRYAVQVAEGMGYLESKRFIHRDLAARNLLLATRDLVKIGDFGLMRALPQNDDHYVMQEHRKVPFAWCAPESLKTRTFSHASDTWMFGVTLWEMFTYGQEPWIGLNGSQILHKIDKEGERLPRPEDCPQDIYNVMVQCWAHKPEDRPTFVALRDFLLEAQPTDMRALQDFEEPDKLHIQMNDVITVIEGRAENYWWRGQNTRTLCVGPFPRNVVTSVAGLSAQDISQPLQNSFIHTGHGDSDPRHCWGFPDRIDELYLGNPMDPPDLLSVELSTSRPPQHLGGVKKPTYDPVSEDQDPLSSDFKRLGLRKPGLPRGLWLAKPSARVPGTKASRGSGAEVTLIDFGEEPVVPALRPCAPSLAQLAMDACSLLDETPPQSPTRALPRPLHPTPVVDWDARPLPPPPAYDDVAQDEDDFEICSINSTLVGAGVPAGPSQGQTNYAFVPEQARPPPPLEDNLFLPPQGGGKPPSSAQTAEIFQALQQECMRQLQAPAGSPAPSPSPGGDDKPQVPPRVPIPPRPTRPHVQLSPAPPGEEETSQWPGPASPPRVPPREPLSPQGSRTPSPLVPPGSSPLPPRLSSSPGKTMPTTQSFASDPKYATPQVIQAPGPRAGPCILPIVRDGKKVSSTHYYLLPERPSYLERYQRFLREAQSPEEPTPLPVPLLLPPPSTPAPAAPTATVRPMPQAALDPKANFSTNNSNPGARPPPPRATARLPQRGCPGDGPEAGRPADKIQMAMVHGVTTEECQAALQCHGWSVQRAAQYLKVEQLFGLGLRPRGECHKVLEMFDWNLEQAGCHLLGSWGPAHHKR

Regarding `Clc1cnc(Nc2ccc(N3CCOCC3)cc2)nc1NCC1CCCO1` (stereo not drawn) [Compound 9c], the IC50 in data set [1] (setting [3]) was determined as 6.75e-08 M.
With `O=C(Nc1c(F)cccc1Cl)c1cnc(Nc2ccc(N3CCC(C(=O)O)CC3)cc2)nc1NCC1CCCO1` (stereo not drawn) [Compound 9s], the inhibition at 10 µM in data set [2] (setting [4]) turned out to be 98%. Moreover, the IC50 in data set [1] (setting [5]) is 3.4e-08 M and 3.2e-08 M; in data set [1] (setting [3]), 3.42e-08 M.
On to `Clc1cnc(Nc2ccc(C3CCNCC3)cc2)nc1NCC1CCCO1` (stereo not drawn) [Compound 9f], for which the inhibition at 10 µM in data set [2] (setting [4]) turned out to be 79.5 ± 0.7%. Besides, the IC50 in data set [1] (setting [5]) is 2.31e-07 M.
As for `O=C(O)CCC(=O)N1CCN(c2ccc(Nc3ncc(C(=O)Nc4c(F)cccc4Cl)c(NCC4CCCO4)n3)cc2)CC1` (stereo not drawn) [YL9-163, 4-(4-(4-(5-(2-Chloro-6-fluorophenylcarbamoyl)-4-((tetrahydrofuran-2-yl)methylamino)pyrimidin-2-ylamino)phenyl)piperazin-1-yl)-4-oxobutanoic acid], in data set [2] (setting [6]), the “% Inhibition at 10 μM (ELISA)” value worked out at 93%. Further, the inhibition at 10 µM in data set [2] (setting [7]) turned out to be 85%. Moreover, the IC50 in data set [1] (setting [8]) turned out to be 2.84e-08 M.
On to `Brc1cnc(Nc2ccc(C3CCNCC3)cc2)nc1NCC1CCCO1` (stereo not drawn) [Compound 9k], for which the inhibition at 10 µM in data set [2] (setting [4]) turned out to be 84.5 ± 0.7%. Moreover, the IC50 in data set [1] (setting [3]) was determined as 1.69e-07 M.
`CN1CCN(c2ccc(Nc3ncc(Br)c(NCC4CCCO4)n3)cc2)CC1` (stereo not drawn) [DZ1-122, 5-bromo-N2-(4-(4-methylpiperazin-1-yl)phenyl)-N4-((tetrahydrofuran-2-yl)methyl)pyrimidine-2,4-diamine]: the “% Inhibition at 10 μM (ELISA)” value in data set [2] (setting [6]) amounted to 91%. Also, the inhibition at 10 µM in data set [2] (setting [7]) was 95%. For the same molecule, the half-maximal inhibitory concentration (IC50) in data set [1] (setting [9]) is 4.8e-08 M.
Consider `Clc1cnc(Nc2ccc(N3CCOCC3)cc2)nc1NC[C@H]1CCCO1` [DZ1-064], for which the IC50 in data set [1] (setting [9]) amounted to 4.65e-08 M.
`Cl.Oc1ccc(Nc2ncc(Br)c(NCC3CCCO3)n2)cc1` (stereo not drawn) [SK1-028, 4-(5-Bromo-4-((tetrahydrofuran-2-yl)methylamino)pyrimidin-2-ylamino)phenol hydrochloride]: the “% Inhibition at 10 μM (ELISA)” value in data set [2] (setting [10]) is 59% and 81% and 85% and 65% and 67%. In addition, in data set [1] (setting [8]), the IC50 is 1.64e-07 M.
For `Brc1cnc(Nc2ccc(N3CCNCC3)cc2)nc1NCC1CCCO1` (stereo not drawn) [YL9-167, 5-Bromo-N2-(4-(piperazin-1-yl)phenyl)-N4-((tetrahydrofuran-2-yl)methyl)pyrimidine-2,4-diamine TFA salt], the IC50 in data set [1] (setting [8]) stood at 9.47e-08 M.
In the case of `Brc1cnc(Nc2ccc(N3CCOCC3)cc2)nc1NCC1CCCO1.Cl` (stereo not drawn) [DZ1-091, 5-bromo-N2-(4-morpholinophenyl)-N4-((tetrahydrofuran-2-yl)methyl)pyrimidine-2,4-diamine], in data set [2] (setting [6]), the “% Inhibition at 10 μM (ELISA)” value was found to be 90%. Moreover, the inhibition at 10 µM in data set [2] (setting [7]) stood at 88%. The concentration for half-maximal inhibition (IC50) in data set [1] (setting [9]) worked out at 1.06e-07 M.
With `O=C(Nc1c(F)cccc1Cl)c1cnc(Nc2ccc(O)cc2)nc1NCC1CCCO1` (stereo not drawn) [YL7-104-2, N-(2-chloro-6-fluorophenyl)-2-(4-hydroxyphenylamino)-4-((tetrahydrofuran-2-yl)methylamino)pyrimidine-5-carboxamide], in data set [2] (setting [6]), the “% Inhibition at 10 μM (ELISA)” value turned out to be 76%. In addition, the inhibition at 10 µM in data set [2] (setting [7]) worked out at 85%. For the same molecule, the IC50 in data set [1] (Table 1, nM, (RB) = Reaction Biology, replicates listed, read-out: IC50) was 5.44e-08 M.
Consider `Cc1cc(Nc2ncc(Cl)c(Nc3ccccc3S(=O)(=O)C(C)C)n2)c(OC(C)C)cc1C1CCNCC1` [LDK, reference compound], for which the IC50 in data set [1] (setting [9]) came out at 8.87e-08 M.
With `COc1ccc(Nc2ncc(C(=O)Nc3c(F)cccc3Cl)c(Nc3ccccc3S(=O)(=O)C(C)C)n2)cc1` [YL7-045-1, N-(2-chloro-6-fluorophenyl)-4-(2-(isopropylsulfonyl)phenylamino)-2-(4-methoxyphenylamino)pyrimidine-5-carboxamide], the melting point was 246 °C (dec.). Moreover, the “% Inhibition at 10 μM (ELISA)” value in data set [2] (setting [6]) is 37% and 18%.
As for `Cl.Oc1ccc(Nc2ncc(Br)c(NCC3CCCO3)n2)cc1Cl` (stereo not drawn) [YL7-172-1, 4-(5-Bromo-4-((tetrahydrofuran-2-yl)methylamino)pyrimidin-2-ylamino)-2-chlorophenol hydrochloride], the melting point was 193 °C (dec.). Further, the “% Inhibition at 10 μM (ELISA)” value in data set [2] (setting [10]) is 75% and 55% and 35%.
Regarding `Cl.NS(=O)(=O)c1ccc(Nc2ncc(Br)c(NCC3CCCO3)n2)cc1` (stereo not drawn) [YL8-003-3, 4-(5-Bromo-4-((tetrahydrofuran-2-yl)methylamino)pyrimidin-2-ylamino)benzenesulfonamide hydrochloride], the melting point is 214 °C (dec.). In addition, the “% Inhibition at 10 μM (ELISA)” value in data set [2] (setting [10]) was 68% and 63%. In data set [2] (setting [7]), the inhibition at 10 µM was 56%.
Consider `O=C(O)CCCc1ccc(Nc2ncc(Cl)c(NCC3CCCO3)n2)cc1` (stereo not drawn) [NT1-025, 4-(4-(5-Chloro-4-((tetrahydrofuran-2-yl)methylamino)pyrimidin-2-ylamino)phenyl)butanoic acid], for which the melting point is 180 °C (dec.). In addition, the “% Inhibition at 10 μM (ELISA)” value in data set [2] (setting [6]) amounted to 65%. Also, the inhibition at 10 µM in data set [2] (read-out: % Inhibition at 10 μM (ELISA), 10 μM, Table 1, replicate values listed) was found to be 61%.
Consider `Cl.O=C(O)c1cc(Nc2ncc(Br)c(NCC3CCCO3)n2)ccc1O` (stereo not drawn) [YL8-003-1, 5-(5-Bromo-4-((tetrahydrofuran-2-yl)methylamino)pyrimidin-2-ylamino)-2-hydroxybenzoic acid hydrochloride], for which the melting point is 211 °C (dec.). Also, the “% Inhibition at 10 μM (ELISA)” value in data set [2] (setting [10]) is 28% and 16%. In addition, the inhibition at 10 µM in data set [2] (setting [7]) stood at 27%.
With `CCCSc1ccccc1Nc1nc(Nc2ccc(OC)cc2)ncc1C(=O)Nc1c(F)cccc1Cl` [YL7-055-3, N-(2-chloro-6-fluorophenyl)-2-(4-methoxyphenylamino)-4-(2-(propylthio)phenylamino)pyrimidine-5-carboxamide], the melting point lay in the range of 248 to 249 °C. In addition, in data set [2] (setting [6]), the “% Inhibition at 10 μM (ELISA)” value is 1% and 13%.
On to `CCc1cnc(Nc2ccc(N3CCN(C)CC3)cc2)nc1NCC1CCCO1` (stereo not drawn) [DZ1-108, 5-ethyl-N2-(4-(4-methylpiperazin-1-yl)phenyl)-N4-((tetrahydrofuran-2-yl)methyl)pyrimidine-2,4-diamine], for which the melting point is 209.5 °C (dec.). Moreover, the “% Inhibition at 10 μM (ELISA)” value in data set [2] (setting [6]) was 72% and 48% and 34% and 46%.
Turning to `CC(C)S(=O)(=O)c1ccccc1Nc1nc(Cl)ncc1C(=O)Nc1c(F)cccc1Cl` [YL7-041, 2-Chloro-N-(2-chloro-6-fluorophenyl)-4-(2-(isopropylsulfonyl)phenylamino)pyrimidine-5-carboxamide], the melting point was 225 to 227 °C. Besides, in data set [2] (setting [6]), the “% Inhibition at 10 μM (ELISA)” value was 7% and −21% and −27%.
As to `Cl.O=C(O)c1cc(Nc2ncc(C(=O)Nc3c(F)cccc3Cl)c(NCC3CCCO3)n2)ccc1O` (stereo not drawn) [YL8-009-2, 5-(5-(2-Chloro-6-fluorophenylcarbamoyl)-4-((tetrahydrofuran-2-yl)methylamino)pyrimidin-2-ylamino)-2-hydroxybenzoic acid hydrochloride], the melting point was 298 °C (dec.). In addition, the “% Inhibition at 10 μM (ELISA)” value in data set [2] (setting [10]) was 40% and 55%. Also, the inhibition at 10 µM in data set [2] (setting [7]) was found to be 44%.
In the case of `CS(=O)(=O)c1ccccc1Nc1nc(Nc2ccc(O)cc2)ncc1C(=O)Nc1c(F)cccc1Cl` [YL7-038, N-(2-chloro-6-fluorophenyl)-2-(4-hydroxyphenylamino)-4-(2-(methylsulfonyl)phenylamino)pyrimidine-5-carboxamide], the melting point is 238 °C (dec.). The “% Inhibition at 10 μM (ELISA)” value in data set [2] (setting [6]) was 39% and 18%.
For the molecule `COc1ccc(Nc2ncc(C(=O)Nc3c(F)cccc3Cl)c(Nc3ccccc3SC)n2)cc1` [YL7-039-1, N-(2-chloro-6-fluorophenyl)-2-(4-methoxyphenylamino)-4-(2-(methylthio)phenylamino)pyrimidine-5-carboxamide], the melting point is 261 °C (dec.). Moreover, in data set [2] (setting [6]), the “% Inhibition at 10 μM (ELISA)” value is 7% and 0%.
Consider `CC(C)Sc1ccccc1Nc1nc(Nc2ccc(O)cc2)ncc1C(=O)Nc1c(F)cccc1Cl` [YL7-045-4, N-(2-chloro-6-fluorophenyl)-2-(4-hydroxyphenylamino)-4-(2-(isopropylthio)phenylamino)pyrimidine-5-carboxamide], for which the melting point is 232 °C (dec.). For the same molecule, the inhibition at 10 µM in data set [2] (setting [7]) came out at 0%.
With `CCSc1ccccc1Nc1nc(Nc2ccc(OC)cc2)ncc1C(=O)Nc1c(F)cccc1Cl` [YL7-058-3, N-(2-chloro-6-fluorophenyl)-4-(2-(ethylthio)phenylamino)-2-(4-methoxyphenylamino)pyrimidine-5-carboxamide], the melting point is 250 °C (dec.). Moreover, the “% Inhibition at 10 μM (ELISA)” value in data set [2] (setting [6]) was 1% and 0%.
In the case of `Cl.O=C(O)CCCc1ccc(Nc2ncc(Cl)c(NC[C@@H]3CCCO3)n2)cc1` [NT1-027, (S)-4-(4-(5-Chloro-4-((tetrahydrofuran-2-yl)methylamino)pyrimidin-2-ylamino)phenyl)butanoic acid], the melting point was 180 °C (dec.). In data set [2] (setting [6]), the “% Inhibition at 10 μM (ELISA)” value is listed as 64%. Besides, in data set [2] (setting [7]), the inhibition at 10 µM amounted to 52%.
For `COc1ccc(Nc2ncc(Br)c(NCC3CCCO3)n2)cc1F.Cl` (stereo not drawn) [YL7-172-8, 5-Bromo-N2-(3-fluoro-4-methoxyphenyl)-N4-((tetrahydrofuran-2-yl)methyl)pyrimidine-2,4-diamine hydrochloride], the melting point is 169 °C (dec.). Besides, the “% Inhibition at 10 μM (ELISA)” value in data set [2] (setting [10]) was 14% and 35% and 41%.
On to `COc1ccc(Nc2ncc(C(=O)Nc3c(F)cccc3Cl)c(Nc3ccccc3S(C)(=O)=O)n2)cc1` [YL7-037, N-(2-chloro-6-fluorophenyl)-2-(4-methoxyphenylamino)-4-(2-(methylsulfonyl)phenylamino)pyrimidine-5-carboxamide], for which the melting point was 267 °C (dec.). The “% Inhibition at 10 μM (ELISA)” value in data set [2] (setting [6]) was 4% and 0%.
Take `Clc1cnc(Nc2ccc(N3CCOCC3)cc2)nc1NC[C@@H]1CCCO1` [DZ1-074]: the IC50 in data set [1] (setting [9]) came out at 7.41e-08 M.

As usually defined, the IC50 is the concentration needed to halve the response being measured. For orientation: inhibition means the drop in the measured response relative to a control, in per cent. What is called % Inhibition is the relative decrease from the control value, in per cent. As usually defined, the melting point is the temperature of the solid-liquid transition.
